ChEMBL document CHEMBL1671626, “In vitro profiling of ceftaroline against a collection of recent bacterial clinical isolates from across the United States” (2008)

How the values were obtained:
Type in all cases: functional
Staphylococcus aureus [1] = assay: Antibacterial activity against methicillin-susceptible Staphylococcus aureus by CLSI M7-A7 broth microdilution method
Staphylococcus aureus [2] = assay: Antibacterial activity against methicillin-susceptible Staphylococcus aureus assessed as resistant isolates by CLSI M7-A7 broth microdilution method
Staphylococcus aureus [3] = assay: Antibacterial activity against methicillin-resistant Staphylococcus aureus assessed as susceptible isolates by CLSI M7-A7 broth microdilution method
Staphylococcus aureus [4] = assay: Antibacterial activity against methicillin-resistant Staphylococcus aureus assessed as resistant isolates by CLSI M7-A7 broth microdilution method
Staphylococcus aureus [5] = assay: Antibacterial activity against coagulase-negative and oxacillin-susceptible Staphylococcus aureus assessed as susceptible isolates by CLSI M7-A7 broth microdilution method
Staphylococcus aureus [6] = assay: Antibacterial activity against coagulase-negative and oxacillin-susceptible Staphylococcus aureus assessed as resistant isolates by CLSI M7-A7 broth microdilution method
Staphylococcus aureus [7] = assay: Antibacterial activity against coagulase-negative and oxacillin-resistant Staphylococcus aureus by CLSI M7-A7 broth microdilution method
Staphylococcus aureus [8] = assay: Antibacterial activity against coagulase-negative and oxacillin-resistant Staphylococcus aureus assessed as susceptible isolates by CLSI M7-A7 broth microdilution method
Streptococcus pneumoniae [9] = assay: Antibacterial activity against penicillin-susceptible Streptococcus pneumoniae by CLSI M7-A7 broth microdilution method
Streptococcus pneumoniae [10] = assay: Antibacterial activity against penicillin-susceptible Streptococcus pneumoniae assessed as susceptible isolates by CLSI M7-A7 broth microdilution method
Streptococcus pneumoniae [11] = assay: Antibacterial activity against penicillin-resistant Streptococcus pneumoniae assessed as susceptible isolates by CLSI M7-A7 broth microdilution method
Streptococcus pyogenes = assay: Antibacterial activity against erythromycin-susceptible Streptococcus pyogenes by CLSI M7-A7 broth microdilution method
Streptococcus agalactiae [12] = assay: Antibacterial activity against erythromycin-susceptible Streptococcus agalactiae by CLSI M7-A7 broth microdilution method
Streptococcus agalactiae [13] = assay: Antibacterial activity against erythromycin-nonsusceptible Streptococcus agalactiae by CLSI M7-A7 broth microdilution method
Streptococcus viridans = assay: Antibacterial activity against penicillin-susceptible Streptococcus viridans by CLSI M7-A7 broth microdilution method
Enterococcus faecalis = assay: Antibacterial activity against vancomycin-susceptible Enterococcus faecalis by CLSI M7-A7 broth microdilution method
Enterococcus faecium = assay: Antibacterial activity against vancomycin-resistant Enterococcus faecium by CLSI M7-A7 broth microdilution method
Citrobacter freundii [14] = assay: Antibacterial activity against ceftazidime-susceptible Citrobacter freundii assessed as susceptible isolates by CLSI M7-A7 broth microdilution method
Citrobacter freundii [15] = assay: Antibacterial activity against ceftazidime-susceptible Citrobacter freundii assessed as resistant isolates by CLSI M7-A7 broth microdilution method
Enterobacter cloacae [16] = assay: Antibacterial activity against ceftazidime-susceptible Enterobacter cloacae by CLSI M7-A7 broth microdilution method
Enterobacter cloacae [17] = assay: Antibacterial activity against ceftazidime-nonsusceptible Enterobacter cloacae by CLSI M7-A7 broth microdilution method
Enterobacter cloacae [18] = assay: Antibacterial activity against ceftazidime-nonsusceptible Enterobacter cloacae assessed as resistant isolates by CLSI M7-A7 broth microdilution method
Escherichia coli [19] = assay: Antibacterial activity against ceftazidime-susceptible Escherichia coli by CLSI M7-A7 broth microdilution method
Escherichia coli [20] = assay: Antibacterial activity against ceftazidime-susceptible Escherichia coli assessed as susceptible isolates by CLSI M7-A7 broth microdilution method
Escherichia coli [21] = assay: Antibacterial activity against ceftazidime-susceptible Escherichia coli assessed as resistant isolates by CLSI M7-A7 broth microdilution method
Escherichia coli [22] = assay: Antibacterial activity against ceftazidime-nonsusceptible Escherichia coli by CLSI M7-A7 broth microdilution method
Klebsiella pneumoniae [23] = assay: Antibacterial activity against ceftazidime-susceptible Klebsiella pneumoniae by CLSI M7-A7 broth microdilution method
Klebsiella pneumoniae [24] = assay: Antibacterial activity against ceftazidime-susceptible Klebsiella pneumoniae assessed as resistant isolates by CLSI M7-A7 broth microdilution method
Klebsiella pneumoniae [25] = assay: Antibacterial activity against ceftazidime-nonsusceptible Klebsiella pneumoniae assessed as resistant isolates by CLSI M7-A7 broth microdilution method
Morganella morganii [26] = assay: Antibacterial activity against ceftazidime-susceptible Morganella morganii assessed as susceptible isolates by CLSI M7-A7 broth microdilution method
Morganella morganii [27] = assay: Antibacterial activity against ceftazidime-susceptible Morganella morganii assessed as resistant isolates by CLSI M7-A7 broth microdilution method
Proteus mirabilis = assay: Antibacterial activity against ceftazidime-susceptible Proteus mirabilis assessed as susceptible isolates by CLSI M7-A7 broth microdilution method
Serratia marcescens [28] = assay: Antibacterial activity against ceftazidime-susceptible Serratia marcescens by CLSI M7-A7 broth microdilution method
Serratia marcescens [29] = assay: Antibacterial activity against ceftazidime-susceptible Serratia marcescens assessed as susceptible isolates by CLSI M7-A7 broth microdilution method
Serratia marcescens [30] = assay: Antibacterial activity against ceftazidime-susceptible Serratia marcescens assessed as resistant isolates by CLSI M7-A7 broth microdilution method
Acinetobacter [31] = assay: Antibacterial activity against multidrug-resistant Acinetobacter by CLSI M7-A7 broth microdilution method
Acinetobacter [32] = assay: Antibacterial activity against imipenem-susceptible Acinetobacter assessed as susceptible isolates by CLSI M7-A7 broth microdilution method
Acinetobacter [33] = assay: Antibacterial activity against imipenem-susceptible Acinetobacter assessed as resistant isolates by CLSI M7-A7 broth microdilution method
Haemophilus influenzae = assay: Antibacterial activity against beta lactamase-negative Haemophilus influenzae assessed as susceptible isolates by CLSI M7-A7 broth microdilution method
Moraxella catarrhalis [34] = assay: Antibacterial activity against beta lactamase-positive Moraxella catarrhalis by CLSI M7-A7 broth microdilution method
Pasteurella multocida = assay: Antibacterial activity against Pasteurella multocida by CLSI M7-A7 broth microdilution method
Providencia sp. [35] = assay: Antibacterial activity against ceftazidime-susceptible Providencia sp. assessed as susceptible isolates by CLSI M7-A7 broth microdilution method
Providencia sp. [36] = assay: Antibacterial activity against ceftazidime-susceptible Providencia sp. assessed as resistant isolates by CLSI M7-A7 broth microdilution method
Moraxella catarrhalis [37] = assay: Antibacterial activity against beta lactamase-positive Moraxella catarrhalis assessed as susceptible isolates by CLSI M7-A7 broth microdilution method

C[C@@H](O)[C@H]1C(=O)N2C(C(=O)O)=C(SCCNC=N)C[C@H]12 [IMIPENEM ANHYDROUS]
100%: Activity (Staphylococcus aureus [5]) | Activity (Citrobacter freundii [14]) | Activity (Escherichia coli [20]) | Activity (Morganella morganii [26]) | Activity (Proteus mirabilis) | Activity (Serratia marcescens [29]) | Activity (Acinetobacter [32]) | Activity (Haemophilus influenzae) | Activity (Providencia sp. [35])
10.6%: Activity (Klebsiella pneumoniae [25])
12.5%: Activity (Streptococcus pneumoniae [11])
0%: Activity (Staphylococcus aureus [6]) | Activity (Citrobacter freundii [15]) | Activity (Escherichia coli [21]) | Activity (Klebsiella pneumoniae [24]) | Activity (Morganella morganii [27]) | Activity (Serratia marcescens [30]) | Activity (Acinetobacter [33]) | Activity (Providencia sp. [36])
77.3%: Activity (Staphylococcus aureus [8])
0.12 µg/mL: MIC50 (Escherichia coli [19]) | MIC (Klebsiella pneumoniae [23]) | MIC50 (Klebsiella pneumoniae [23])
≤ 0.12 µg/mL: MIC (Staphylococcus aureus [1]) | MIC50 (Staphylococcus aureus [1]) | MIC90 (Staphylococcus aureus [1]) | MIC (Moraxella catarrhalis [34]) | MIC50 (Moraxella catarrhalis [34]) | MIC90 (Moraxella catarrhalis [34])
0.3%: Activity (Staphylococcus aureus [2])
2.9%: Activity (Enterobacter cloacae [18])
1 µg/mL: MIC50 (Enterococcus faecalis) | MIC90 (Escherichia coli [22]) | MIC90 (Serratia marcescens [28])
0.03 µg/mL: MIC90 (Streptococcus agalactiae [12]) | MIC90 (Streptococcus agalactiae [13])
96.5%: Activity (Streptococcus pneumoniae [10])
0.5 µg/mL: MIC50 (Staphylococcus aureus [7]) | MIC50 (Enterobacter cloacae [16]) | MIC90 (Enterobacter cloacae [16]) | MIC90 (Klebsiella pneumoniae [23]) | MIC50 (Serratia marcescens [28]) | MIC50 (Acinetobacter [31])
16 µg/mL: MIC90 (Staphylococcus aureus [7])
32 µg/mL: MIC90 (Acinetobacter [31])
0.25 µg/mL: MIC50 (Enterobacter cloacae [17]) | MIC90 (Enterobacter cloacae [17]) | MIC90 (Escherichia coli [19]) | MIC50 (Escherichia coli [22]) | MIC50 (Pasteurella multocida)
2 µg/mL: MIC90 (Enterococcus faecalis) | MIC90 (Pasteurella multocida)
0.06 µg/mL: MIC90 (Streptococcus viridans)
≤ 0.015 µg/mL: MIC (Streptococcus pneumoniae [9]) | MIC50 (Streptococcus pneumoniae [9]) | MIC90 (Streptococcus pneumoniae [9]) | MIC (Streptococcus pyogenes) | MIC50 (Streptococcus pyogenes) | MIC90 (Streptococcus pyogenes) | MIC (Streptococcus agalactiae [12]) | MIC50 (Streptococcus agalactiae [12]) | MIC (Streptococcus agalactiae [13]) | MIC50 (Streptococcus agalactiae [13]) | MIC (Streptococcus viridans) | MIC50 (Streptococcus viridans)
84.6%: Activity (Staphylococcus aureus [3])
> 16 µg/mL: MIC (Enterococcus faecium) | MIC50 (Enterococcus faecium) | MIC90 (Enterococcus faecium)
13.5%: Activity (Staphylococcus aureus [4])

CC(C)(O/N=C(\C(=O)N[C@@H]1C(=O)N2C(C(=O)[O-])=C(C[n+]3ccccc3)CS[C@H]12)c1csc(N)n1)C(=O)O [CEFTAZIDIME]
100%: Activity (Citrobacter freundii [14]) | Activity (Escherichia coli [20]) | Activity (Morganella morganii [26]) | Activity (Proteus mirabilis) | Activity (Serratia marcescens [29]) | Activity (Moraxella catarrhalis [37]) | Activity (Providencia sp. [35])
54%: Activity (Staphylococcus aureus [4])
0.25 µg/mL: MIC50 (Enterobacter cloacae [16]) | MIC90 (Escherichia coli [19]) | MIC90 (Klebsiella pneumoniae [23])
10%: Activity (Staphylococcus aureus [8])
> 32 µg/mL: MIC90 (Staphylococcus aureus [7]) | MIC (Enterococcus faecalis) | MIC50 (Enterococcus faecalis) | MIC90 (Enterococcus faecalis) | MIC (Enterococcus faecium) | MIC50 (Enterococcus faecium) | MIC90 (Enterococcus faecium) | MIC50 (Enterobacter cloacae [17]) | MIC90 (Enterobacter cloacae [17]) | MIC50 (Escherichia coli [22]) | MIC90 (Escherichia coli [22]) | MIC50 (Acinetobacter [31]) | MIC90 (Acinetobacter [31])
≤ 1 µg/mL: MIC (Streptococcus pneumoniae [9]) | MIC50 (Streptococcus pneumoniae [9]) | MIC90 (Streptococcus pneumoniae [9]) | MIC (Streptococcus pyogenes) | MIC50 (Streptococcus pyogenes) | MIC90 (Streptococcus pyogenes) | MIC (Streptococcus agalactiae [12]) | MIC50 (Streptococcus agalactiae [12]) | MIC90 (Streptococcus agalactiae [12]) | MIC (Streptococcus agalactiae [13]) | MIC50 (Streptococcus agalactiae [13]) | MIC90 (Streptococcus agalactiae [13]) | MIC (Streptococcus viridans) | MIC50 (Streptococcus viridans) | MIC (Moraxella catarrhalis [34]) | MIC50 (Moraxella catarrhalis [34]) | MIC90 (Moraxella catarrhalis [34]) | MIC (Pasteurella multocida) | MIC50 (Pasteurella multocida) | MIC90 (Pasteurella multocida)
0.12 µg/mL: MIC50 (Escherichia coli [19]) | MIC50 (Klebsiella pneumoniae [23]) | MIC50 (Serratia marcescens [28])
32 µg/mL: MIC50 (Staphylococcus aureus [7])
0.5%: Activity (Staphylococcus aureus [6])
98.5%: Activity (Klebsiella pneumoniae [25]) | Activity (Haemophilus influenzae)
11%: Activity (Staphylococcus aureus [3])
93.5%: Activity (Staphylococcus aureus [5])
91.4%: Activity (Enterobacter cloacae [18])
4 µg/mL: MIC90 (Streptococcus viridans)
8 µg/mL: MIC50 (Staphylococcus aureus [1]) | MIC90 (Staphylococcus aureus [1])
1 µg/mL: MIC90 (Enterobacter cloacae [16]) | MIC90 (Serratia marcescens [28])
31.9%: Activity (Acinetobacter [33])
63.8%: Activity (Acinetobacter [32])
1.7%: Activity (Staphylococcus aureus [2])
0%: Activity (Citrobacter freundii [15]) | Activity (Escherichia coli [21]) | Activity (Klebsiella pneumoniae [24]) | Activity (Morganella morganii [27]) | Activity (Serratia marcescens [30]) | Activity (Providencia sp. [36])
